Values of other authors in patent US20210052545A1, “COMPOSITIONS AND METHODS OF THEIR USE” (priority 2018, published 2021).

Details: human, in vivo

For `NC(=O)N1c2ccccc2C=Cc2ccccc21` [carbamezepine], the “increase in the risk of blood dyscrasias” value is given as “five- to eight” and the “patients showing a 25% decrease in white blood cell count” value is given as 7%.
